Results taken from patent publication US5041567A, “Antibacterial monic acid derivatives” (Beecham Group plc, priority 1982, dated 1991).
Converted amounts (≈) assume the structure as drawn. Like-named read-outs stand apart in the source and are kept apart here.

Columns and labels:
M. suipneumoniae NB12 = assay: MIC against mycoplasma in vitro; assay type: cell-based; conditions: Mesomycoplasma hyopneumoniae
M. suipneumoniae Str. 11 = assay: MIC against mycoplasma in vitro; assay type: cell-based; conditions: Mesomycoplasma hyopneumoniae
[1] = system: M. suipneumoniae PW/C/210; assay: MIC against mycoplasma in vitro; assay type: cell-based; conditions: Mesomycoplasma hyopneumoniae, 144 h
M. suipneumoniae UCD 1 = assay: MIC against mycoplasma in vitro; assay type: cell-based; conditions: Mesomycoplasma hyopneumoniae, UCD1, 144 h
M. bovis NCTC 10131 = assay: microbe, parasite or virus in culture; assay type: cell-based; conditions: NCTC10131, 144 h
[2] = system: M. bovigenitalium ATCC 14173; assay: MIC against mycoplasma in vitro; assay type: cell-based; conditions: 144 h
M. gallisepticum S6 = assay: MIC against mycoplasma in vitro; assay type: cell-based; conditions: Mycoplasmoides gallisepticum
E. coli NCTC 10418 [3] = assay: MIC against human bacteria in vitro; assay type: cell-based; conditions: Escherichia coli
[4] = system: Ps. aeruginosa NCTC 10662; assay: MIC against human bacteria in vitro; assay type: cell-based; conditions: Pseudomonas aeruginosa
[5] = system: Haemophilus influenzae Q1; assay: MIC against human bacteria in vitro; assay type: cell-based
[6] = system: Haemophilus influenzae Wy21; assay: MIC against human bacteria in vitro; assay type: cell-based
[7] = system: Corynebacterium xerosis 9755; assay: MIC against human bacteria in vitro; assay type: cell-based
Strep. agalactiae 2788-B = assay: MIC against human bacteria in vitro; assay type: cell-based; conditions: Streptococcus agalactiae; Strep. agalactiae 2788-B; 5% chocolated horse blood agar, 18 hours; read-out: MIC
E. coli NCTC 10418 [8] = assay: MIC against veterinary bacteria in vitro; conditions: Escherichia coli, NCTC10418, 18 h
Experimental: (§1) The activity of the compounds of the Examples against various veterinarily important bacteria, was assayed in vitro using two-fold serial dilutions in Diagnostic Sensitivity Test Agar inoculated with 10^4 organisms.

S. dublin S7 = assay: MIC against veterinary bacteria in vitro; conditions: Salmonella enterica, S7, 18 h
Experimental: as §1

Bord. bronchiseptica B09 = assay: MIC against veterinary bacteria in vitro; conditions: Bordetella bronchiseptica, B09, 18 h
Experimental: as §1

Past. multocida PA1 = assay: MIC against veterinary bacteria in vitro; conditions: Pasteurella multocida, PA1, 18 h
Experimental: as §1

Past. haemolytica PA5 = assay: MIC against veterinary bacteria in vitro; conditions: Mannheimia haemolytica, PA5, 18 h
Experimental: as §1

[9] = system: Erysipelothrix rhusiopathiae NCTC 8163; assay: MIC against veterinary bacteria in vitro; conditions: Erysipelothrix rhusiopathiae, NCTC8163, 18 h
Experimental: as §1

[10] = system: Corynebacterium pyogenes CY1; assay: MIC against veterinary bacteria in vitro; conditions: CY1, 18 h
Experimental: as §1

Staph. aureus Oxford = assay: MIC against veterinary bacteria in vitro; conditions: Staphylococcus aureus, 18 h
Experimental: as §1

Strep. dysgalactiae SPD1 = assay: MIC against veterinary bacteria in vitro; conditions: Streptococcus dysgalactiae, SPD1, 18 h
Experimental: as §1

Strep. agalactiae SPA1 = assay: MIC against veterinary bacteria in vitro; conditions: Streptococcus agalactiae, SPA1, 18 h
Experimental: as §1

[11] = 144 h, M. gallisepticum S6, 6 days, 37° C., read-out: MIC
[12] = NCTC10418, E. coli NCTC 10418, agar with 5% chocolated horse blood, 18 hours, 37° C., read-out: MIC
[13] = NCTC10662, Ps. aeruginosa NCTC 10662, 5% chocolated horse blood agar, 18 hours, read-out: MIC
[14] = Haemophilus influenzae Q1, 5% chocolated horse blood agar, 18 hours, read-out: MIC
[15] = Haemophilus influenzae Wy21, 5% chocolated horse blood agar, 18 hours, read-out: MIC
[16] = Corynebacterium xerosis 9755, 5% chocolated horse blood agar, 18 hours, read-out: MIC
[17] = 144 h, M. suipneumoniae NB12, Friis broth, 0.9% agarose, 6 days, 37° C., read-out: MIC
[18] = 144 h, M. suipneumoniae Str. 11, 6 days, 37° C., read-out: MIC
[19] = M. suipneumoniae PW/C/210, 6 days, 37° C., read-out: MIC
[20] = M. suipneumoniae UCD 1, 6 days, 37° C., read-out: MIC
[21] = M. bovigenitalium ATCC 14173, 6 days, 37° C., read-out: MIC
[22] = Haemophilus influenzae, Q1, 18 h
[23] = Haemophilus influenzae, WY21, 18 h
[24] = Corynebacterium xerosis, 9755, 18 h

SMILES: C/C(=C\c1ncc(-c2cccc([N+](=O)[O-])c2)o1)C[C@@H]1OC[C@H](C[C@@H]2O[C@H]2[C@@H](C)[C@H](C)O)[C@@H](O)[C@H]1O [Example 6, 5-m-nitrophenyl-2-(1-normon-2-yl)oxazole A]
- MIC (M. suipneumoniae NB12; NB12, 144 h): 0.05 µg/mL (≈ 0.102 µM)
- MIC (M. suipneumoniae Str. 11; STR.11, 144 h): 0.05 µg/mL (≈ 0.102 µM)
- MIC [1]: 0.025 µg/mL (≈ 0.0512 µM)
- MIC (M. suipneumoniae UCD 1): 0.05 µg/mL (≈ 0.102 µM)
- MIC (M. bovis NCTC 10131): 0.025 µg/mL (≈ 0.0512 µM)
- MIC [2]: 0.05 µg/mL (≈ 0.102 µM)
- MIC (M. gallisepticum S6; [11]): 1 µg/mL (≈ 2.05 µM)
- MIC (E. coli NCTC 10418 [3]; [12]): > 128 µg/mL
- MIC [4, 13]: > 128 µg/mL
- MIC [5, 14]: 2 µg/mL (≈ 4.09 µM)
- MIC [6, 15]: 2 µg/mL (≈ 4.09 µM)
- MIC [7, 16]: > 128 µg/mL
- MIC (Strep. agalactiae 2788-B): 4 µg/mL (≈ 8.19 µM)
- MIC (E. coli NCTC 10418 [8]): > 80 µg/mL
- MIC (S. dublin S7): > 80 µg/mL
- MIC (Bord. bronchiseptica B09): 20 µg/mL (≈ 40.9 µM)
- MIC (Past. multocida PA1): 10 µg/mL (≈ 20.5 µM)
- MIC (Past. haemolytica PA5): 80 µg/mL (≈ 164 µM)
- MIC [9]: > 80 µg/mL
- MIC [10]: > 80 µg/mL
- MIC (Staph. aureus Oxford): 1.25 µg/mL (≈ 2.56 µM)
- MIC (Strep. dysgalactiae SPD1): 0.625 µg/mL (≈ 1.28 µM)
- MIC (Strep. agalactiae SPA1): 2.5 µg/mL (≈ 5.12 µM)

SMILES: COC(=O)CCCCCCCc1cnc(/C=C(\C)C[C@@H]2OC[C@H](C[C@@H]3O[C@H]3[C@@H](C)[C@H](C)O)[C@@H](O)[C@H]2O)o1 [Example 7, 5-(7-Methoxycarbonylheptyl)-2-(1-normon-2-yl)oxazole A]
- MIC (M. suipneumoniae NB12; [17]): > 10 µg/mL
- MIC (M. suipneumoniae Str. 11; [18]): 10 µg/mL (≈ 19.1 µM)
- MIC [1, 19]: 10 µg/mL (≈ 19.1 µM)
- MIC (M. suipneumoniae UCD 1; [20]): > 10 µg/mL
- MIC (M. bovis NCTC 10131): 0.1 µg/mL (≈ 0.191 µM)
- MIC [2, 21]: 1 µg/mL (≈ 1.91 µM)
- MIC (M. gallisepticum S6; [11]): > 10 µg/mL
- MIC (E. coli NCTC 10418 [3]; NCTC10418, 18 h): > 100 µg/mL
- MIC ([4]; NCTC10662, 18 h): > 100 µg/mL
- MIC [5, 22]: 0.5 µg/mL (≈ 0.955 µM)
- MIC [6, 23]: 1 µg/mL (≈ 1.91 µM)
- MIC [7, 24]: > 100 µg/mL
- MIC (Strep. agalactiae 2788-B): 25 µg/mL (≈ 47.7 µM)
- MIC (E. coli NCTC 10418 [8]): > 80 µg/mL
- MIC (S. dublin S7): > 80 µg/mL
- MIC (Bord. bronchiseptica B09): 40 µg/mL (≈ 76.4 µM)
- MIC (Past. multocida PA1): 40 µg/mL (≈ 76.4 µM)
- MIC (Past. haemolytica PA5): > 80 µg/mL
- MIC [9]: > 80 µg/mL
- MIC [10]: > 80 µg/mL
- MIC (Staph. aureus Oxford): 5 µg/mL (≈ 9.55 µM)
- MIC (Strep. dysgalactiae SPD1): 2.5 µg/mL (≈ 4.77 µM)
- MIC (Strep. agalactiae SPA1): 5 µg/mL (≈ 9.55 µM)

SMILES: CSc1ccc(-c2cnc(/C=C(\C)C[C@@H]3OC[C@H](C[C@@H]4O[C@H]4[C@@H](C)[C@H](C)O)[C@@H](O)[C@H]3O)o2)cc1 [Example 9, 5-p-methylthiophenyl-2-(1-normon-2-yl)oxazole A]
- MIC (M. suipneumoniae NB12; NB12, 144 h): 0.5 µg/mL (≈ 1.02 µM)
- MIC (M. suipneumoniae Str. 11; STR.11, 144 h): 0.5 µg/mL (≈ 1.02 µM)
- MIC [1]: 0.5 µg/mL (≈ 1.02 µM)
- MIC (M. suipneumoniae UCD 1): 0.5 µg/mL (≈ 1.02 µM)
- MIC (M. bovis NCTC 10131): 0.05 µg/mL (≈ 0.102 µM)
- MIC [2]: 0.1 µg/mL (≈ 0.204 µM)
- MIC (M. gallisepticum S6; S6, 144 h): 1 µg/mL (≈ 2.04 µM)
- MIC (E. coli NCTC 10418 [3]; NCTC10418, 18 h): > 100 µg/mL
- MIC ([4]; NCTC10662, 18 h): > 100 µg/mL
- MIC [5, 22]: 5 µg/mL (≈ 10.2 µM)
- MIC [6, 23]: 50 µg/mL (≈ 102 µM)
- MIC [7, 24]: > 100 µg/mL
- MIC (Strep. agalactiae 2788-B): 10 µg/mL (≈ 20.4 µM)
- MIC (E. coli NCTC 10418 [8]): > 80 µg/mL
- MIC (S. dublin S7): > 80 µg/mL
- MIC (Bord. bronchiseptica B09): 40 µg/mL (≈ 81.7 µM)
- MIC (Past. multocida PA1): 20 µg/mL (≈ 40.8 µM)
- MIC (Past. haemolytica PA5): 40 µg/mL (≈ 81.7 µM)
- MIC [9]: 80 µg/mL (≈ 163 µM)
- MIC [10]: 80 µg/mL (≈ 163 µM)
- MIC (Staph. aureus Oxford): 0.625 µg/mL (≈ 1.28 µM)
- MIC (Strep. dysgalactiae SPD1): 0.625 µg/mL (≈ 1.28 µM)
- MIC (Strep. agalactiae SPA1): 10 µg/mL (≈ 20.4 µM)

SMILES: C/C(=C\c1ncc(-c2ccc(S(C)(=O)=O)cc2)o1)C[C@@H]1OC[C@H](C[C@@H]2O[C@H]2[C@@H](C)[C@H](C)O)[C@@H](O)[C@H]1O [Example 10]
- MIC (M. suipneumoniae NB12; NB12, 144 h): 0.05 µg/mL (≈ 0.0959 µM)
- MIC (M. suipneumoniae Str. 11; STR.11, 144 h): 0.025 µg/mL (≈ 0.0479 µM)
- MIC [1]: 0.025 µg/mL (≈ 0.0479 µM)
- MIC (M. suipneumoniae UCD 1): 0.05 µg/mL (≈ 0.0959 µM)
- MIC (M. bovis NCTC 10131): 0.01 µg/mL (≈ 0.0192 µM)
- MIC [2]: 0.025 µg/mL (≈ 0.0479 µM)
- MIC (M. gallisepticum S6; S6, 144 h): 0.1 µg/mL (≈ 0.192 µM)
- MIC (E. coli NCTC 10418 [3]; [12]): > 128 µg/mL
- MIC [4, 13]: > 128 µg/mL
- MIC [5, 22]: 1 µg/mL (≈ 1.92 µM)
- MIC [6, 15]: 2 µg/mL (≈ 3.83 µM)
- MIC [7, 16]: > 128 µg/mL
- MIC (Strep. agalactiae 2788-B): 8 µg/mL (≈ 15.3 µM)
- MIC (E. coli NCTC 10418 [8]): > 80 µg/mL
- MIC (S. dublin S7): > 80 µg/mL
- MIC (Bord. bronchiseptica B09): 40 µg/mL (≈ 76.7 µM)
- MIC (Past. multocida PA1): 5 µg/mL (≈ 9.59 µM)
- MIC (Past. haemolytica PA5): 40 µg/mL (≈ 76.7 µM)
- MIC [9]: > 80 µg/mL
- MIC [10]: > 80 µg/mL
- MIC (Staph. aureus Oxford): 2.5 µg/mL (≈ 4.79 µM)
- MIC (Strep. dysgalactiae SPD1): 2.5 µg/mL (≈ 4.79 µM)
- MIC (Strep. agalactiae SPA1): 2.5 µg/mL (≈ 4.79 µM)

SMILES: C/C(=C\c1nc(C)c(C)o1)C[C@@H]1OC[C@H](C[C@@H]2O[C@H]2[C@@H](C)[C@H](C)O)[C@@H](O)[C@H]1O [Example 39, 4,5-Dimethyl-2-(1-normon-2-yl)oxazole A]
- MIC (M. suipneumoniae NB12; [17]): > 10 µg/mL
- MIC (M. suipneumoniae Str. 11; [18]): > 10 µg/mL
- MIC [1, 19]: > 10 µg/mL
- MIC (M. suipneumoniae UCD 1; [20]): > 10 µg/mL
- MIC (M. bovis NCTC 10131): 5 µg/mL (≈ 12.6 µM)
- MIC [2, 21]: 5 µg/mL (≈ 12.6 µM)
- MIC (M. gallisepticum S6; [11]): > 10 µg/mL
- MIC (E. coli NCTC 10418 [3]; NCTC10418, 18 h): > 100 µg/mL
- MIC [4, 13]: > 100 µg/mL
- MIC [5, 14]: 5 µg/mL (≈ 12.6 µM)
- MIC [6, 15]: 2.5 µg/mL (≈ 6.32 µM)
- MIC [7, 16]: > 100 µg/mL
- MIC (Strep. agalactiae 2788-B): > 100 µg/mL
- MIC (E. coli NCTC 10418 [8]): > 80 µg/mL
- MIC (S. dublin S7): > 80 µg/mL
- MIC (Bord. bronchiseptica B09): > 80 µg/mL
- MIC (Past. multocida PA1): 80 µg/mL (≈ 202 µM)
- MIC (Past. haemolytica PA5): 80 µg/mL (≈ 202 µM)
- MIC [9]: > 80 µg/mL
- MIC [10]: > 80 µg/mL
- MIC (Staph. aureus Oxford): > 80 µg/mL
- MIC (Strep. dysgalactiae SPD1): > 80 µg/mL
